ChEMBL document CHEMBL1156514, “Chemical genetics define the roles of p38alpha and p38beta in acute and chronic inflammation” (J Biol Chem, 2007)
Activity calls are given as the source filed them. The calls are words filed in the database; no cut-off is given here.

Key:
[1] = biological target: Mitogen-activated protein kinase 11 (Homo sapiens, UniProt Q15759); test: Inhibition of wild type p38beta
Mus musculus [2] = test: Inhibition of collagen antibody-induced arthritis in p38alpha T106M mutant expressing C57BL/6 mouse at 3 mg/kg, po administered daily once 24 hrs after LPS challenge; format: functional, organism-based; set-up: dose 3 mg/kg
[3] = biological target: Mitogen-activated protein kinase 11 (Homo sapiens, UniProt Q15759, T106M); test: Inhibition of p38beta T106M mutant
Mitogen-activated protein kinase 11 (Homo sapiens, UniProt Q15759, T106M), sequence (Q15759 whole entry T106M): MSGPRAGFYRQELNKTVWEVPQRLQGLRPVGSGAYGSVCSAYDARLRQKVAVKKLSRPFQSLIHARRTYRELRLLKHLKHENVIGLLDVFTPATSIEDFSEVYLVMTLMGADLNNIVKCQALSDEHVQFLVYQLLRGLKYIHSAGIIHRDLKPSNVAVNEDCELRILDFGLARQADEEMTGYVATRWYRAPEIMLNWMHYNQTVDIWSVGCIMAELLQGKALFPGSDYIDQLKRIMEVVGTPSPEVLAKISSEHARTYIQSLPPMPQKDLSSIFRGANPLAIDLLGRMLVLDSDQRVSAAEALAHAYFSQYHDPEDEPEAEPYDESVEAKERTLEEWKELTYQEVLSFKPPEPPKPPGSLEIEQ

[4] = Inhibition of LPS-stimulated TNFalpha production in p38alpha expressing mouse peritoneal exudates cells by ELISA; format: functional
Mus musculus [5] = test: Inhibition of collagen antibody-induced arthritis in p38beta T106M mutant expressing C57BL/6 mouse at 3 mg/kg, po administered daily once 24 hrs after LPS challenge; format: functional, organism-based; set-up: dose 3 mg/kg
[6] = biological target: Mitogen-activated protein kinase 14 (Homo sapiens, UniProt Q16539); test: Inhibition of wild type p38alpha
Mitogen-activated protein kinase 14 (Homo sapiens, UniProt Q16539), sequence (Q16539 whole entry): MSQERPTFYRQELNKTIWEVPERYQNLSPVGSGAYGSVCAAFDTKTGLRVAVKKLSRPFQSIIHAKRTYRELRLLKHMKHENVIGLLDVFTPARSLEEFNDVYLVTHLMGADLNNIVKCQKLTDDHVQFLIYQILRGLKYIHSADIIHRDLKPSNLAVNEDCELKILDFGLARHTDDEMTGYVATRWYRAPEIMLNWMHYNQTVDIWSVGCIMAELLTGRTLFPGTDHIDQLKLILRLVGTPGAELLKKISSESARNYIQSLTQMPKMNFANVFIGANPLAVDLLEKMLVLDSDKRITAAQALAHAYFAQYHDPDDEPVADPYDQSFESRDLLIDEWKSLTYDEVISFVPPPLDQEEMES

[7] = biological target: Mitogen-activated protein kinase 14 (Homo sapiens, UniProt Q16539, T106M); test: Inhibition of p38alpha T106M mutant
Mitogen-activated protein kinase 14 (Homo sapiens, UniProt Q16539, T106M), sequence (Q16539 2-360 T106M limits assumed): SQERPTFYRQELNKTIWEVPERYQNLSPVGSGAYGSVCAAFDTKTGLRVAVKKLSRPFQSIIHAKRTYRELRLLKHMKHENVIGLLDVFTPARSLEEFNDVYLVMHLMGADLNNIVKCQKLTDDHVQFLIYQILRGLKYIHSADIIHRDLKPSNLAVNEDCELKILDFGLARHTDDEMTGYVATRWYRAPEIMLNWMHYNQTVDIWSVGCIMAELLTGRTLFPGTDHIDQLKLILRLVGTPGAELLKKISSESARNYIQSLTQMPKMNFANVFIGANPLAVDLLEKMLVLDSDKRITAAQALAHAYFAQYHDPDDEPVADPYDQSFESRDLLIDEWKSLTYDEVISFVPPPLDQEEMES

[8] = Inhibition of LPS-stimulated TNFalpha production in p38beta deficient mouse peritoneal exudates cells by ELISA; format: functional
[9] = Inhibition of LPS-stimulated TNFalpha production in p38beta T106M mutant expressing mouse peritoneal exudates cells by ELISA; format: functional
[10] = Inhibition of LPS-stimulated TNFalpha production in p38alpha T106M mutant expressing mouse peritoneal exudates cells by ELISA; format: functional
Mus musculus [11] = test: Inhibition of collagen antibody-induced arthritis in wild type C57BL/6 mouse at 3 mg/kg, po administered daily once 24 hrs after LPS challenge; format: functional, organism-based; set-up: dose 3 mg/kg
Mus musculus [12] = test: Inhibition of LPS-stimulated TNFalpha production in p38beta deficient C57BL/6 mouse plasma at 3 mg/kg, po after 90 mins by ELISA; format: functional, organism-based; set-up: dose 3 mg/kg
Mus musculus [13] = test: Inhibition of LPS-stimulated TNFalpha production in wild type C57BL/6 mouse plasma at 3 mg/kg, po after 90 mins by ELISA; format: functional, organism-based; set-up: dose 3 mg/kg
Mus musculus [14] = test: Inhibition of LPS-stimulated TNFalpha production in p38beta T106M mutant expressing C57BL/6 mouse plasma at 3 mg/kg, po after 90 mins by ELISA; format: functional, organism-based; set-up: dose 3 mg/kg
Mus musculus [15] = test: Inhibition of LPS-stimulated TNFalpha production in p38alpha T106M mutant expressing C57BL/6 mouse plasma at 3 mg/kg, po after 90 mins by ELISA; format: functional, organism-based; set-up: dose 3 mg/kg

Mitogen-activated protein kinase 11 (Homo sapiens, UniProt Q15759), sequence (Q15759 whole entry): as the sequence (Q15759 whole entry T106M) above, with M106T counted along it

CC(C)(C)N1CCC(c2cc(-c3ccc(F)cc3F)c3ccc(=O)n(-c4c(Cl)cccc4Cl)c3c2)CC1
IC50 [1]: 0.25 nM | Activity (Mus musculus [2]): inactive | IC50 [3]: 260 nM | IC50 [4]: 3.5 nM | Activity (Mus musculus [5]): Active | IC50 [6]: 0.08 nM | IC50 [7]: 28 nM | IC50 [8]: 6.8 nM | IC50 [9]: 8.3 nM | IC50 [10]: > 250 nM | Activity (Mus musculus [11]): Active

C[C@H](Nc1cc(-c2c(-c3cccc(C(F)(F)F)c3)nc(C3CCNCC3)n2C)ccn1)c1ccccc1
Activity (Mus musculus [12]): Active | Activity (Mus musculus [13]): Active | Activity (Mus musculus [14]): Active | Activity (Mus musculus [15]): inactive
